According to patent publication US12545639B2, “3-substituted phenylamidine compounds, preparation and use thereof” (PI INDUSTRIES LTD., priority 2019, dated 2026):

Experiments:
Colletotrichum capsici = Colletotrichum capsici (anthracnose) in vitro test, radial growth on potato dextrose agar; format: cell-based; details: Colletotrichum truncatum, 168 h; 300 ppm in potato dextrose agar; 25° C., 60% relative humidity, seven days; read-out: control compared to the untreated check (radial growth)
Pyricularia oryzae [1] = assay: microbe, parasite or virus in culture; format: cell-based; details: 168 h, read-out: control compared to the untreated check (radial growth)
Alternaria solani = Alternaria solani (early blight of tomato/potato) in vitro test, radial growth on potato dextrose agar; format: cell-based; details: 168 h, 300 ppm in potato dextrose agar, 25° C., 60% relative humidity, seven days, read-out: control compared to the untreated check (radial growth)
[2] = tested on: Septoria lycopersici/Corynespora cassicola (CORYCA); assay: Septoria lycopersici/Corynespora cassicola (CORYCA) (leaf spot of tomato) in vitro test, radial growth on potato dextrose agar; format: cell-based; details: 168 h, 300 ppm in potato dextrose agar, 25° C., 70% relative humidity, seven days, read-out: control compared to the untreated check (radial growth)
Rhizoctonia solani = Rhizoctonia solani (rice sheath blight/potato black scurf) in vitro test, radial growth on potato dextrose agar; format: cell-based; details: 168 h, 300 ppm in potato dextrose agar, 25° C., 60% relative humidity, seven days, read-out: control compared to the untreated check (radial growth)
Botrytis cinerea = Botrytis cinerea (gray mold) in vitro test, radial growth on potato dextrose agar; format: cell-based; details: 168 h, 300 ppm in potato dextrose agar, 22° C., 90% relative humidity, seven days, read-out: control compared to the untreated check (radial growth)
Phakopsora pachyrhizi = Phakopsora pachyrhizi test in soybean, preventive, in vivo on plants; details: in Glycine max, read-out: Efficacy (% control), disease severity compared to the untreated check
Pyricularia oryzae [3] = assay: whole plant or invertebrate; format: in vivo, Pyricularia oryzae on rice; details: read-out: Efficacy (% control), disease severity compared to the untreated check
Fusarium culmorum = Fusarium culmorum (foot rot of cereals) in vitro test, radial growth on potato dextrose agar; format: cell-based; details: 168 h, 300 ppm in potato dextrose agar, 25° C., 60% relative humidity, seven days, read-out: control compared to the untreated check (radial growth)
Summary of the method: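 Compound in 0.3% DMSO mixed into potato dextrose agar, plates seeded with a 5 mm mycelial disc from an actively growing virulent culture. After seven days at 25° C and 60% relative humidity, radial growth was measured against untreated control.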

CCN(C)C=Nc1cc(Cl)cc(Cc2cccc(C)c2)c1C [Compound 94, N′-(5-chloro-2-methyl-3-(3-methylbenzyl)phenyl)-N-ethyl-N-methylformimidamide]
≥ 70%: inhibition of growth at 300 ppm (Colletotrichum capsici) | inhibition of growth at 300 ppm (Pyricularia oryzae [1]) | inhibition of growth at 300 ppm (Alternaria solani) | inhibition of growth at 300 ppm [2] | inhibition of growth at 300 ppm (Rhizoctonia solani) | inhibition of growth at 300 ppm (Botrytis cinerea) | pest or weed control at 500 ppm (Phakopsora pachyrhizi) | pest or weed control at 500 ppm (Pyricularia oryzae [3])

CCN(C)C=Nc1cc(C)cc(NCc2ccccc2C(F)(F)F)c1Cl [Compound 181, N′-(2-chloro-5-methyl-3-((2-(trifluoromethyl)benzyl)amino)phenyl)-N-ethyl-N-methylformimidamide]
≥ 70%: inhibition of growth at 300 ppm (Colletotrichum capsici) | inhibition of growth at 300 ppm (Pyricularia oryzae [1]) | inhibition of growth at 300 ppm (Alternaria solani) | inhibition of growth at 300 ppm (Rhizoctonia solani) | inhibition of growth at 300 ppm (Botrytis cinerea) | pest or weed control at 500 ppm (Phakopsora pachyrhizi) | pest or weed control at 500 ppm (Pyricularia oryzae [3])

CCN(C)C=Nc1cc(Cl)cc(Cc2ccc(Cl)cc2)c1C [Compound 126, N′-(5-chloro-3-(4-chlorobenzyl)-2-methylphenyl)-N-ethyl-N-methylformimidamide]
≥ 70%: inhibition of growth at 300 ppm (Colletotrichum capsici) | inhibition of growth at 300 ppm (Pyricularia oryzae [1]) | inhibition of growth at 300 ppm (Alternaria solani) | inhibition of growth at 300 ppm [2] | inhibition of growth at 300 ppm (Rhizoctonia solani) | inhibition of growth at 300 ppm (Botrytis cinerea) | pest or weed control at 500 ppm (Phakopsora pachyrhizi) | inhibition of growth at 300 ppm (Fusarium culmorum)

CCN(C)C=Nc1cc(Cl)cc(N(C)c2ccccc2F)c1C [Compound 178, N′-(5-chloro-3-((2-fluorophenyl)(methyl)amino)-2-methylphenyl)-N-ethyl-N-methylformimidamide]
≥ 70%: inhibition of growth at 300 ppm (Pyricularia oryzae [1]) | inhibition of growth at 300 ppm (Alternaria solani) | inhibition of growth at 300 ppm (Rhizoctonia solani) | inhibition of growth at 300 ppm (Botrytis cinerea) | pest or weed control at 500 ppm (Phakopsora pachyrhizi) | pest or weed control at 500 ppm (Pyricularia oryzae [3])

CCN(C)C=Nc1cc(Cl)cc(N(C)c2cccc(Cl)c2)c1C [Compound 180, N′-(5-chloro-3-((3-chlorophenyl)(methyl)amino)-2-methylphenyl)-N-ethyl-N-methylformimidamide]
≥ 70%: inhibition of growth at 300 ppm (Alternaria solani) | pest or weed control at 500 ppm (Pyricularia oryzae [3])

CCN(C)C=Nc1cc(C)cc(Cc2ccc(F)cc2)c1Cl [Compound 44, N′-(2-chloro-3-(4-fluorobenzyl)-5-methylphenyl)-N-ethyl-N-methylformimidamide]
≥ 70%: inhibition of growth at 300 ppm (Colletotrichum capsici) | inhibition of growth at 300 ppm (Pyricularia oryzae [1]) | inhibition of growth at 300 ppm (Alternaria solani) | inhibition of growth at 300 ppm [2] | inhibition of growth at 300 ppm (Rhizoctonia solani) | inhibition of growth at 300 ppm (Botrytis cinerea) | pest or weed control at 500 ppm (Phakopsora pachyrhizi) | inhibition of growth at 300 ppm (Fusarium culmorum)

CCN(C)C=Nc1cc(OC)cc(Cc2ccc(Br)cc2)c1C [Compound 287, N′-(3-(4-bromobenzyl)-5-methoxy-2-methylphenyl)-N-ethyl-N-methylformimidamide]
≥ 70%: inhibition of growth at 300 ppm (Colletotrichum capsici) | inhibition of growth at 300 ppm (Pyricularia oryzae [1]) | inhibition of growth at 300 ppm (Alternaria solani) | inhibition of growth at 300 ppm [2] | inhibition of growth at 300 ppm (Rhizoctonia solani) | inhibition of growth at 300 ppm (Botrytis cinerea) | pest or weed control at 500 ppm (Phakopsora pachyrhizi) | inhibition of growth at 300 ppm (Fusarium culmorum)

CCN(C)C=Nc1cc(OC)cc(Cc2ccc(C)cc2)c1C [Compound 263, N-ethyl-N′-(5-methoxy-2-methyl-3-(4-methylbenzyl)phenyl)-N-methylformimidamide]
≥ 70%: inhibition of growth at 300 ppm (Colletotrichum capsici) | inhibition of growth at 300 ppm (Pyricularia oryzae [1]) | inhibition of growth at 300 ppm (Alternaria solani) | inhibition of growth at 300 ppm [2] | inhibition of growth at 300 ppm (Rhizoctonia solani) | inhibition of growth at 300 ppm (Botrytis cinerea) | pest or weed control at 500 ppm (Phakopsora pachyrhizi) | inhibition of growth at 300 ppm (Fusarium culmorum)

CCN(C)C=Nc1cc(C)cc(Cc2cccc(C)c2)c1C [Compound 208, N′-(2,5-dimethyl-3-(3-methylbenzyl)phenyl)-N-ethyl-N-methylformimidamide]
≥ 70%: inhibition of growth at 300 ppm (Colletotrichum capsici) | inhibition of growth at 300 ppm (Pyricularia oryzae [1]) | inhibition of growth at 300 ppm (Alternaria solani) | inhibition of growth at 300 ppm [2] | inhibition of growth at 300 ppm (Rhizoctonia solani) | inhibition of growth at 300 ppm (Botrytis cinerea) | pest or weed control at 500 ppm (Phakopsora pachyrhizi) | inhibition of growth at 300 ppm (Fusarium culmorum)

CCN(C)C=Nc1cc(C)cc(Cc2cccc(C)c2)c1Cl [Compound 17, N′-(2-chloro-5-methyl-3-(3-methylbenzyl)phenyl)-N-ethyl-N-methylformimidamide]
≥ 70%: inhibition of growth at 300 ppm (Colletotrichum capsici) | inhibition of growth at 300 ppm (Pyricularia oryzae [1]) | inhibition of growth at 300 ppm (Alternaria solani) | inhibition of growth at 300 ppm [2] | inhibition of growth at 300 ppm (Rhizoctonia solani) | inhibition of growth at 300 ppm (Botrytis cinerea) | pest or weed control at 500 ppm (Phakopsora pachyrhizi) | inhibition of growth at 300 ppm (Fusarium culmorum)

CCN(C)C=Nc1cc(Cl)cc(Cc2ccc(Br)cc2)c1C [Compound 125, N′-(3-(4-bromobenzyl)-5-chloro-2-methylphenyl)-N-ethyl-N-methylformimidamide]
≥ 70%: inhibition of growth at 300 ppm (Colletotrichum capsici) | inhibition of growth at 300 ppm (Pyricularia oryzae [1]) | inhibition of growth at 300 ppm (Alternaria solani) | inhibition of growth at 300 ppm [2] | inhibition of growth at 300 ppm (Rhizoctonia solani) | inhibition of growth at 300 ppm (Botrytis cinerea) | pest or weed control at 500 ppm (Phakopsora pachyrhizi) | inhibition of growth at 300 ppm (Fusarium culmorum)

CCN(C)C=Nc1cc(Cl)cc(Cc2ccc(F)cc2)c1C [Compound 124, N′-(5-chloro-3-(4-fluorobenzyl)-2-methylphenyl)-N-ethyl-N-methylformimidamide]
≥ 70%: inhibition of growth at 300 ppm (Colletotrichum capsici) | inhibition of growth at 300 ppm (Pyricularia oryzae [1]) | inhibition of growth at 300 ppm (Alternaria solani) | inhibition of growth at 300 ppm [2] | inhibition of growth at 300 ppm (Rhizoctonia solani) | inhibition of growth at 300 ppm (Botrytis cinerea) | pest or weed control at 500 ppm (Phakopsora pachyrhizi) | inhibition of growth at 300 ppm (Fusarium culmorum)

CCN(C)C=Nc1cc(OC)cc(Cc2cccc(F)c2)c1C [Compound 277, N-ethyl-N′-(3-(3-fluorobenzyl)-5-methoxy-2-methylphenyl)-N-methylformimidamide]
≥ 70%: pest or weed control at 500 ppm (Phakopsora pachyrhizi) | pest or weed control at 500 ppm (Pyricularia oryzae [3])

CCN(C)C=Nc1cc(C)cc(Cc2ccc(Br)cc2)c1C [Compound 223, N′-(3-(4-bromobenzyl)-2,5-dimethylphenyl)-N-ethyl-N-methylformimidamide]
≥ 70%: inhibition of growth at 300 ppm (Colletotrichum capsici) | inhibition of growth at 300 ppm (Pyricularia oryzae [1]) | inhibition of growth at 300 ppm (Alternaria solani) | inhibition of growth at 300 ppm [2] | inhibition of growth at 300 ppm (Rhizoctonia solani) | inhibition of growth at 300 ppm (Botrytis cinerea) | pest or weed control at 500 ppm (Phakopsora pachyrhizi) | inhibition of growth at 300 ppm (Fusarium culmorum)

CCN(C)C=Nc1cc(C)cc(Cc2ccc(Cl)cc2)c1C [Compound 224, N′-(3-(4-chlorobenzyl)-2,5-dimethylphenyl)-N-ethyl-N-methylformimidamide]
≥ 70%: inhibition of growth at 300 ppm (Colletotrichum capsici) | inhibition of growth at 300 ppm (Pyricularia oryzae [1]) | inhibition of growth at 300 ppm (Alternaria solani) | inhibition of growth at 300 ppm [2] | inhibition of growth at 300 ppm (Rhizoctonia solani) | inhibition of growth at 300 ppm (Botrytis cinerea) | pest or weed control at 500 ppm (Phakopsora pachyrhizi) | inhibition of growth at 300 ppm (Fusarium culmorum)

CCN(C)C=Nc1cc(C)cc(Cc2cccc(Cl)c2F)c1Cl [Compound 56, N′-(2-chloro-3-(3-chloro-2-fluorobenzyl)-5-methylphenyl)-N-ethyl-N-methylformimidamide]
≥ 70%: inhibition of growth at 300 ppm (Colletotrichum capsici) | inhibition of growth at 300 ppm (Pyricularia oryzae [1]) | inhibition of growth at 300 ppm (Alternaria solani) | inhibition of growth at 300 ppm [2] | inhibition of growth at 300 ppm (Rhizoctonia solani) | inhibition of growth at 300 ppm (Botrytis cinerea) | pest or weed control at 500 ppm (Phakopsora pachyrhizi) | inhibition of growth at 300 ppm (Fusarium culmorum)
